From PubChem BioAssay AID328 (DTP/NCI, 2004) come the findings set out here.

The assay has as its system BDF1 mice, P388 leukemia ip, median survival T/C. The assay can be described thus: NCI In Vivo Anticancer Drug Screen. Data for tumor model P388 Leukemia (intraperitoneal) in B6D2F1 (BDF1) mice. The conditions noted are these: endpoint: median survival time, higher = longer survival. In short, it runs like this:
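Vehicle-dosed animals serve as the reference; survival of compound-dosed, tumour-implanted mice is divided by it.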

Where [1] appears, read: dose: 50.0 mg/kg/injection, schedule: Q01DX009 (ip), vehicle: saline with Tween-80.
[2] abbreviates: dose: 200.0 mg/kg/injection, schedule: Q04DX003 (ip), vehicle: saline.
Where [3] appears, read: dose: 100.0 mg/kg/injection, schedule: Q01DX009 (ip), vehicle: Klucel (hydroxypropylcellulose) (HPC).
Where [4] appears, read: dose: 100.0 mg/kg/injection, schedule: Q04DX003 (ip), vehicle: Klucel (hydroxypropylcellulose) (HPC).
Where [5] appears, read: dose: 200.0 mg/kg/injection, schedule: Q01DX009 (ip), vehicle: Klucel (hydroxypropylcellulose) (HPC).
[6] abbreviates: dose: 200.0 mg/kg/injection, schedule: Q04DX003 (ip), vehicle: Klucel (hydroxypropylcellulose) (HPC).

Where “and” joins values, the source holds several entries; their conditions need not be identical. Identical values can stand only once. Toxic doses and inconclusive results are not listed.

On to `CCCCN(C)N=Nc1ccc(CCCC(=O)OCC)cc1`, for which the T/C runs as follows: (dose: 12.5 mg/kg/injection, schedule: Q01DX009 (ip), vehicle: saline with Tween-80) 91 % of control; (dose: 25.0 mg/kg/injection, schedule: Q01DX009 (ip), vehicle: saline with Tween-80) 100 % of control; under setting [1], 117 % of control; (dose: 132.0 mg/kg/injection, schedule: Q04DX003 (ip), vehicle: saline) 95 % of control; under setting [2], 156 % of control; (dose: 300.0 mg/kg/injection, schedule: Q04DX003 (ip), vehicle: saline) 121 % of control.

Take `O=C(CCl)NC(CO)C(=O)O` (centres undefined): the T/C was 91 % of control (dose: 50.0 mg/kg/injection, schedule: Q04DX003 (ip), vehicle: saline); 100 % of control (dose: 100.0 mg/kg/injection, schedule: Q04DX003 (ip), vehicle: saline); 91 % of control under setting [2].

With `Cc1cc(N(CCCl)CCCl)ccc1C=NC1CCCC1`, the T/C was 150 % of control under setting [3]; 95 % of control under setting [4]; 169 % of control (dose: 133.0 mg/kg/injection, schedule: Q01DX009 (ip), vehicle: Klucel (hydroxypropylcellulose) (HPC)); 188 % of control and 200 % of control under setting [5]; 108 % of control under setting [6].

For the molecule `COc1ccc(C(C)=O)cc1CO/N=C1\CSCc2ccccc21`, the T/C is 101 % of control under setting [1]; 119 % of control (dose: 100.0 mg/kg/injection, schedule: Q01DX009 (ip), vehicle: saline with Tween-80); 108 % of control (dose: 200.0 mg/kg/injection, schedule: Q01DX009 (ip), vehicle: saline with Tween-80).

Turning to `CC(Cc1ccc(O)c(O)c1)C(C)Cc1ccc(O)c(O)c1` (centres undefined), the T/C runs as follows: (dose: 50.0 mg/kg/injection, schedule: Q01DX010 (ip), vehicle: saline) 100 % of control; (dose: 100.0 mg/kg/injection, schedule: Q01DX010 (ip), vehicle: saline) 104 % of control; (dose: 200.0 mg/kg/injection, schedule: Q01DX010 (ip), vehicle: saline) 104 % of control.

Turning to `CC(C)(C)COC(=O)CCN1CC1`, the T/C (dose: 2.5 mg/kg/injection, schedule: Q01DX009 (ip), vehicle: Klucel (hydroxypropylcellulose) (HPC)) was 116 % of control; the T/C (dose: 5.0 mg/kg/injection, schedule: Q01DX009 (ip), vehicle: Klucel (hydroxypropylcellulose) (HPC)) is 111 % of control; the T/C (dose: 10.0 mg/kg/injection, schedule: Q01DX009 (ip), vehicle: Klucel (hydroxypropylcellulose) (HPC)) is 122 % of control; the T/C (dose: 20.0 mg/kg/injection, schedule: Q01DX009 (ip), vehicle: Klucel (hydroxypropylcellulose) (HPC)) was 100 % of control; the T/C (dose: 20.0 mg/kg/injection, schedule: Q04DX003 (ip), vehicle: Klucel (hydroxypropylcellulose) (HPC)) is 95 % of control; the T/C (dose: 40.0 mg/kg/injection, schedule: Q04DX003 (ip), vehicle: Klucel (hydroxypropylcellulose) (HPC)) was 100 % of control. Besides, the T/C (dose: 80.0 mg/kg/injection, schedule: Q04DX003 (ip), vehicle: Klucel (hydroxypropylcellulose) (HPC)) was 109 % of control.

With `CCCCCCOC(=O)C(O)c1ccccc1` (centres undefined), the T/C reads like this: (dose: 50.0 mg/kg/injection, schedule: Q04DX003 (ip), vehicle: saline with Tween-80) 109 % of control; (dose: 100.0 mg/kg/injection, schedule: Q04DX003 (ip), vehicle: saline with Tween-80) 95 % of control; (dose: 200.0 mg/kg/injection, schedule: Q04DX003 (ip), vehicle: saline with Tween-80) 95 % of control; (dose: 400.0 mg/kg/injection, schedule: Q04DX003 (ip), vehicle: saline with Tween-80) 100 % of control.

For the molecule `O=C(CCl)c1ccc[nH]1`, the T/C is 95 % of control (dose: 25.0 mg/kg/injection, schedule: Q04DX003 (ip), vehicle: Klucel (hydroxypropylcellulose) (HPC)) and 91 % of control (dose: 50.0 mg/kg/injection, schedule: Q04DX003 (ip), vehicle: Klucel (hydroxypropylcellulose) (HPC)).

As to `CCOC(=O)C(C)Cl` (centres undefined), the T/C is, setting by setting: (dose: 50.0 mg/kg/injection, schedule: Q01DX009 (ip), vehicle: Klucel (hydroxypropylcellulose) (HPC)) 104 % of control; under setting [3], 100 % of control; under setting [4], 110 % of control; under setting [5], 91 % of control; under setting [6], 105 % of control; (dose: 400.0 mg/kg/injection, schedule: Q04DX003 (ip), vehicle: Klucel (hydroxypropylcellulose) (HPC)) 105 % of control.

For the molecule `Br/C(=N\Nc1nn[nH]n1)c1ccncc1`, the T/C runs as follows: (dose: 25.0 mg/kg/injection, schedule: Q01DX009 (ip), vehicle: saline) 90 % of control; (dose: 50.0 mg/kg/injection, schedule: Q01DX009 (ip), vehicle: saline) 100 % of control and 104 % of control; (dose: 100.0 mg/kg/injection, schedule: Q01DX009 (ip), vehicle: saline) 90 % of control and 100 % of control; (dose: 200.0 mg/kg/injection, schedule: Q01DX009 (ip), vehicle: saline) 95 % of control and 113 % of control.

Consider `O=C(O)/C=C/c1ccccc1C(=O)O`, for which the T/C is 100 % of control (dose: 100.0 mg/kg/injection, schedule: Q01DX001 (ip), vehicle: saline); 100 % of control (dose: 200.0 mg/kg/injection, schedule: Q01DX001 (ip), vehicle: saline); 109 % of control (dose: 400.0 mg/kg/injection, schedule: Q01DX001 (ip), vehicle: saline).

`COC(=O)C[C@](O)(CCC(C)(C)O)C(=O)O[C@@H]1C(OC)=C[C@]23CCCN2CCc2cc4c(cc2[C@H]13)OCO4`: the T/C by setting is: (dose: 0.22 mg/kg/injection, schedule: Q01DX009 (ip), vehicle: saline) 190 % of control; (dose: 0.25 mg/kg/injection, schedule: Q01DX009 (ip), vehicle: saline) 172 % of control and 209 % of control and 215 % of control; (dose: 0.25 mg/kg/injection, schedule: Q03HX016 (ip), vehicle: saline) 163 % of control; (dose: 0.25 mg/kg/injection, schedule: Q03HX024 (ip), vehicle: saline) 177 % of control; (dose: 0.33 mg/kg/injection, schedule: Q01DX009 (ip), vehicle: saline) 204 % of control; (dose: 0.5 mg/kg/injection, schedule: Q01DX006 (iv), vehicle: saline) 110 % of control. Also, the T/C (dose: 0.5 mg/kg/injection, schedule: Q01DX009 (ip), vehicle: water) is 261 % of control and 294 % of control; the T/C (dose: 0.5 mg/kg/injection, schedule: Q03HX008 (ip), vehicle: saline) was 172 % of control; the T/C (dose: 0.5 mg/kg/injection, schedule: Q03HX016 (ip), vehicle: saline) is 163 % of control; the T/C (dose: 0.5 mg/kg/injection, schedule: Q03HX024 (ip), vehicle: saline) is 236 % of control; the T/C (dose: 1.0 mg/kg/injection, schedule: Q01DX009 (ip), vehicle: water) was 350 % of control and 405 % of control; the T/C (dose: 1.0 mg/kg/injection, schedule: Q01DX009 (sc), vehicle: saline) is 165 % of control. For the same molecule, the T/C (dose: 1.0 mg/kg/injection, schedule: Q01DX010 (oral), vehicle: saline) was 115 % of control; the T/C (dose: 1.0 mg/kg/injection, schedule: Q03HX016 (ip), vehicle: saline) was 109 % of control; the T/C (dose: 1.0 mg/kg/injection, schedule: Q03HX024 (ip), vehicle: saline) was 100 % of control; the T/C (dose: 2.0 mg/kg/injection, schedule: Q01DX006 (iv), vehicle: saline) is 205 % of control; the T/C (dose: 2.0 mg/kg/injection, schedule: Q01DX009 (ip), vehicle: water) was 205 % of control; the T/C (dose: 2.0 mg/kg/injection, schedule: Q01DX009 (oral), vehicle: saline) is 210 % of control. Further, the T/C by setting is: (dose: 2.0 mg/kg/injection, schedule: Q01DX009 (sc), vehicle: saline) 215 % of control; (dose: 2.0 mg/kg/injection, schedule: Q01DX010 (oral), vehicle: saline) 160 % of control; (dose: 2.0 mg/kg/injection, schedule: Q01DX010 (sc), vehicle: saline) 235 % of control; (dose: 2.0 mg/kg/injection, schedule: Q04DX003 (ip), vehicle: saline) 154 % of control; (dose: 4.0 mg/kg/injection, schedule: Q01DX009 (ip), vehicle: saline) 150 % of control; (dose: 4.0 mg/kg/injection, schedule: Q01DX010 (sc), vehicle: saline) 100 % of control. Further, the T/C runs as follows: (dose: 8.0 mg/kg/injection, schedule: Q01DX001 (ip), vehicle: saline) 118 % of control; (dose: 8.0 mg/kg/injection, schedule: Q01DX010 (oral), vehicle: saline) 90 % of control; (dose: 8.0 mg/kg/injection, schedule: Q04DX003 (ip), vehicle: saline) 104 % of control; (dose: 8.0 mg/kg/injection, schedule: Q08DX002 (ip), vehicle: saline) 100 % of control.
